Ten molecules from patent US11826430B2, “Anti-cancer nuclear hormone receptor-targeting compounds” (Nuvation Bio Inc., priority 2019, dated 2023) can be followed below.

Each structure is given as a SMILES string.

One assay deals with ER Alpha-LBD (GST) (Homo sapiens (Human), UniProt P03372). Nature of the assay: LanthaScreen TR-FRET ER Alpha Competitive Binding Assay. The conditions noted are these: Fluormone ES2 Green tracer displacement; for IC50: read-out: ERα IC50. Here is the method:
e. Additional cell proliferation assays: Other cancer cell lines are tested in a cell proliferation assay. For example, LnCaP, PC-3, MCF-7, HCC1428, BT474, HCT-116, SK-OV-3 or OVCAR3 cancer cells are tested. Cells are cultured in medium recommended by the supplier (e.g., ATCC or JCRB Cell Bank), at 37° C. in a 5% CO2 environment. For the proliferation assay, cells are plated in the growth medium in 96 well plates. Seeding density is adjusted according to the cell type. 24 hr later, cells are treated, in triplicate or quadruplicate, with test articles prepared in a range of concentrations by series dilution of DMSO stock solutions in growth medium, and typically incubated for three to seven days, with test article-containing medium replaced after three or four days. The number of viable cells is measured using CellTiter Glo assay (CTG, Promega, Madison, WI) or similar. Cell viability data are plotted using GraphPad Prism (GraphPad Software, Inc., San Diego, CA). In addition, a nonlinear regression model with a sigmoidal dose response and variable slope within GraphPad Prism is used to calculate the IC50 value of individual test articles. Similarly, HEK-293 and HeLa calls can also be tested by methods known in the art. f. Nuclear translocation: LNCaP cells are plated on coverslips in 24 well plates in growth medium. Twenty-four hours after plating, medium is changed to RPMI+1% csFBS and the cells are maintained in this medium for two days. Medium is replaced again and the cells are treated. Cells are fixed 4 hours after treatment and the AR immunostained using AR N20 antibody (Santa Cruz Biotechnology, Santa Cruz, CA). Nucleus is stained with DAPI. Cells are imaged with a confocal microscope. g. ER binding assay: ERα binding was assessed by the LanthaScreen® TR-FRET ER Alpha Competitive Binding Assay at Thermo Fisher. In this assay, a terbium-labeled anti-GST antibody was used to indirectly label GST-tagged ER Alpha-ligand binding domain (LBD) by binding to its GST tag. Competitive binding to the ER Alpha-LBD (GST) was detected by a test compound's ability to displace a fluorescent ligand (Fluormone™ ES2 Green tracer) from the ER Alpha-LBD (GST), which results in a loss of FRET signal between the Tb-anti-GST antibody and the tracer. When running the assay, Fluormone™ ES2 Green tracer was added to ligand test compounds or solvent controls followed by addition of a mixture of the ER Alpha-LBD (GST) and terbium anti-GST antibody. After an incubation period at room temperature, the TR-FRET ratio of 520:495 emissions were calculated and used to determine the IC50 from a dose response curve of the compound. ER and PR functional assays: COS cells are transfected with 25 ng rat progesterone receptor (PR) and 250 ng GRE-LUC or 50 ng human estrogen receptor a (ER) and 250 ng ERE-LUC. Cells are also transfected with 10 ng CMV-renilla LUC in OptiMEM medium using lipofectamine transfection reagent. Twenty-four hours after transfection medium is changed to DME+5% csFBS w/o and treated with compounds in the presence of 0.1 nM progesterone for PR and estradiol for ER. Twenty four hours after treatment, cells are harvested and luciferase assay is performed using dual luciferase assay kit. The firefly values are normalized to renilla luciferase values and represented as a ratio. i. Evaluation of test compound in mouse xenograft model: To examine the in vivo antitumor activity of test compound, tumor growth experiments are performed in a cell line xenograft model. Male NOD SCID Gamma (NSG) mice are housed as five animals per cage and are allowed free access to water and commercial rodent chow. 22RV1 cells (grown in RPMI+10% FBS) mixed with 50% matrigel basement membrane are implanted subcutaneously in castrated mice. Alternatively, an antiandrogen resistant cell line other than 22RV1, such as MR49F or VCaP, is used. Once the tumors reach 200-500 mm^3, the animals are randomized and treated intraperitoneally with vehicle (DMSO:PEG-300:corn oil 10:30:60 ratio) or test compound. […]
On the technique in general: Time-resolved FRET reads energy transfer from a long-lived donor to a nearby acceptor.

A further assay concerns the target Human recombinant PARP1 (Homo sapiens (Human), UniProt P09874). Nature of the assay: RBC HotSpot PARP1 radioisotope-based filter binding assay. The conditions noted are these: read-out: PARP1 IC50; 2.5 nM PARP1, histone H4, 10 μM 32P-NAD+.
For the next assay, the target named is Human recombinant PARP2 (Homo sapiens (Human), UniProt Q9UGN5). The assay is described as follows: RBC HotSpot PARP2 radioisotope-based filter binding assay. The note with it: read-out: PARP2 IC50; 2.5 nM PARP2, histone H3, 10 μM 32P-NAD+.
In the next assay the test system is 22RV1 cells. The assay is described as follows: Cell proliferation assay, CellTiter Glo. It is filed as cell-based. The conditions noted are these: Homo sapiens, 22Rv1, 72 h; cell growth inhibition, three days of treatment. Here is the method:
(§1) a. […] IC50s were determined using 8 concentrations/compound. […] Ki=IC50/(1+[L]/Kd) c.
(§2) Cells were plated at varying density in the respective growth medium in 96 well plates. 24 hr later, cells were treated, in triplicate or quadruplicate, with test articles prepared in a range of concentrations by series dilution of DMSO stock solutions in growth medium and incubated for three to seven days. The number of viable 22RV1 and HT-29 cells was measured using CellTiter Glo assay (CTG, Promega, Madison, WI) after three days of treatment. Cell viability data were plotted using GraphPad Prism (GraphPad Software, Inc., San Diego, CA). In addition, a nonlinear regression model with a sigmoidal dose response and variable slope within GraphPad Prism was used to calculate the IC50 value of individual test articles.
(ATP-based viability assays read luminescence as a measure of living cells.)

Another assay concerns HT-29 cells. The assay is described as follows: Cell proliferation assay, CellTiter Glo. It is filed as cell-based. The note with it: Homo sapiens, HT-29, 72 h; cell growth inhibition, three days of treatment. As for the experimental part: as §1, §2

Broadly, the IC50 is the concentration needed to halve the response being measured. Broadly, the Ki is a dissociation constant, usually derived from enzyme kinetics or from competition with a known ligand.

Sequence of ER Alpha-LBD (GST) (P03372 311-547): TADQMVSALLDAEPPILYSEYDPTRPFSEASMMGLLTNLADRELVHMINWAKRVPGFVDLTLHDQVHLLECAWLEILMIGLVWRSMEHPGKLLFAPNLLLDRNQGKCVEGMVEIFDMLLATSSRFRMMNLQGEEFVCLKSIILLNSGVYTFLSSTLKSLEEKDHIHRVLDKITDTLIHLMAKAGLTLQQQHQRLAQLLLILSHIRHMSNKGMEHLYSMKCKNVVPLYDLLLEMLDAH
Sequence of Human recombinant PARP1 (P09874 whole entry): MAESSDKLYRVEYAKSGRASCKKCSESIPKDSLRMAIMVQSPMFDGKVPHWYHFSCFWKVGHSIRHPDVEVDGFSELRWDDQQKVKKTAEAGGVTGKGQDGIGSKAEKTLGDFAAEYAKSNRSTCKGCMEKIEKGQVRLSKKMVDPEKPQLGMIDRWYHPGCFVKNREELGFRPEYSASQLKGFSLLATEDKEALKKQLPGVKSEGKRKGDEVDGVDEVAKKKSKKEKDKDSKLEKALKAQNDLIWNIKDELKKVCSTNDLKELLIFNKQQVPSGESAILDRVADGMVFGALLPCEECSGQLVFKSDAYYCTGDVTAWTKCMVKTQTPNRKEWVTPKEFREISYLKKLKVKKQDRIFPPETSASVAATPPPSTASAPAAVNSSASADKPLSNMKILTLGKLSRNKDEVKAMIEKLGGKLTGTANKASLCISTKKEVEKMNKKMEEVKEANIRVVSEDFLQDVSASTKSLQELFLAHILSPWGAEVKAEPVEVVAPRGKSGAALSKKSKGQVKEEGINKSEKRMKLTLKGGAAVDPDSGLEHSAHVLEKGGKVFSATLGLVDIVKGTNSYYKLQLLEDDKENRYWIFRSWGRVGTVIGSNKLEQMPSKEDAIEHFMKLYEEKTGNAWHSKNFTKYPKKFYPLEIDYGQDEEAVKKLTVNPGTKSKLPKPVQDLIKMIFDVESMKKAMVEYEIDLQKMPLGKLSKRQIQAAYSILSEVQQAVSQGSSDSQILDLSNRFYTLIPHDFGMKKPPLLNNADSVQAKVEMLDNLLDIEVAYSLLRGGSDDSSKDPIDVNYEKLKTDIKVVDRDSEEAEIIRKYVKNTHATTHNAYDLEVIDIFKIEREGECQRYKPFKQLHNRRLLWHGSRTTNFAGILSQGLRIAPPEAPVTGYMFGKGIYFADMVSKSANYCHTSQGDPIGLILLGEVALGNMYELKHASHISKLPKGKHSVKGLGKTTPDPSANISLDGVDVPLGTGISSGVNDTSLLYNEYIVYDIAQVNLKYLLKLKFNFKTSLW
Sequence of Human recombinant PARP2 (Q9UGN5 whole entry): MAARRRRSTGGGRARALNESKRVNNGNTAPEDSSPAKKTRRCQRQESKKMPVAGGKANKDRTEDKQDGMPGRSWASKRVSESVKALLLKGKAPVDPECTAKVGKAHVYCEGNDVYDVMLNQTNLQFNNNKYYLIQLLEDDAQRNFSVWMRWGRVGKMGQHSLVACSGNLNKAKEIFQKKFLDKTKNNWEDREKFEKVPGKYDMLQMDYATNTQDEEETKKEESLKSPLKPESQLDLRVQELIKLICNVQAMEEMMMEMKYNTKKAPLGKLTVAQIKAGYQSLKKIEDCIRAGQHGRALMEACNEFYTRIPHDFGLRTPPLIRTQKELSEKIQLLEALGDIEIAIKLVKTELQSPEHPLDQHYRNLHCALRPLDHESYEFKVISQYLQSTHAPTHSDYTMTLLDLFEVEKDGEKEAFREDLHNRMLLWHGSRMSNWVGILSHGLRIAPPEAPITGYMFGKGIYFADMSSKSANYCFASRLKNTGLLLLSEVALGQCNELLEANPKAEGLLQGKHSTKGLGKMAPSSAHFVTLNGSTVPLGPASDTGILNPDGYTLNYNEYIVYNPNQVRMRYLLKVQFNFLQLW
Experimental for Human recombinant PARP1: (§3) RBC HotSpot Poly(ADP-ribose) Polymerases 1 (PARP1) and Poly(ADP-ribose) Polymerases 2 (PARP2) Assays: The assay was conducted at Reaction Biology Corporation (RBC; Malvern, PA). The assay principle is radioisotope-based filter binding assay where incorporation of radioisotope-labeled NAD^+ into the substrate captured on filter is detected after washout free NAD^+. Data were analyzed using Excel and GraphPad Prism software for IC50 curve fits. Each assay was conducted with PJ34 as a positive control. PARP1 assay: Human recombinant PARP1 at a final concentration of 2.5 nM was combined with histone H4 (20 μM) and test articles at various concentrations in reaction buffer (50 mM Tris-HCL, pH 8.0, 50 mM NaCl, 10 mM MgCl2, 1 mM DTT, 1% DMSO, and 20 μg/mL activated DNA). The solution was inoculated for 20 min at room temperature and the reaction initiated by adding [adenylate-^32P]-Nicotinamide Adenine Dinucleotide, ^32P-NAD^+ at a final concentration of 10 μM. After incubation for 2 hrs at room temperature, the reaction mixture was filtered and washed with 0.75% phosphoric acid for radioactivity detection. • ii. PARP2 assay: Human recombinant PARP2 at a final concentration of 2.5 nM was combined with histone H3 (20 μM) and test articles at various concentrations in reaction buffer (50 mM Tris-HCL, pH 8.0, 50 mM NaCl, 10 mM MgCl2, 1 mM DTT, 1% DMSO, and 20 μg/mL activated DNA). The solution was inoculated for 20 min at room temperature and the reaction was initiated by adding [adenylate-^32P]-Nicotinamide Adenine Dinucleotide, ^32P-NAD^+ at a final concentration of 10 μM. After incubation for 2 hrs at room temperature, the reaction mixture was filtered and washed with 0.75% phosphoric acid for radioactivity detection. b. AR binding assay: AR in LNCaP cytosol was used for determining the binding affinity of test articles and the reference compound—progesterone (Sigma, Cat: E2785, St. Louis, MO). IC50s were determined using 8 concentrations/compound. Cytosol was plated at 200 μg/well (100 μL) into a 96-well conical polypropylene plate (Agilent, Cat: 5042-1385, Santa Clara, CA) and mixed with 3 μL of test compound. After adding 100 μL of ^3H-methyltrienolone (PerkinElmer, Cat: NET590250UC, San Jose, CA), the plate was sealed and shaken at 300 rpm at 4° C. for 24 hours. Post incubation, 100 μL of radioligand adsorption buffer containing 10 mM Tris-HCl, pH 7.4; 1.5 mM EDTA; 1 mM DTT; 0.25% charcoal; 0.0025% dextran was added to individual well. Plate was shaken for 15 min at 4° C. followed by centrifugation at 3000 rpm for 30 min at 4° C. 150 μL of supernatant was transferred into scint-tube (PerkinElmer, Cat: 6000192) and mixed with 2 mL of Ultima Gold Cocktail (PerkinElmer, Cat: 6013329). Radioactivity was counted using a TriCarb 2910 TR scintillation counter (PerkinElmer). Inhibition of the radioactivity by test articles were calculated using the equation below: % Inhibition=(1−(Assay well-Average_LC)/(Average_HC-Average_LC))×100%. IC50 values were calculated and graphed using the model “log(inhibitor) vs. response—Variable slope” included in GraphPad Prism 5 (San Diego, CA). […] Ki=IC50/(1+[L]/Kd) c.
Experimental for Human recombinant PARP2: as §3

Consider `C[C@H]1Cc2c([nH]c3ccccc23)[C@H](c2c(F)cc(OCCN3CCN(C(=O)c4cc(Cc5n[nH]c(=O)c6ccccc56)ccc4F)CC3)cc2F)N1CC(C)(C)F` (stereo in doubt) [Compound 2.51, 4-(3-(4-(2-(3,5-difluoro-4-((1S,3S)-2-(2-fluoro-2-methylpropyl)-3-methyl-2,3,4,9-tetrahydro-1H-pyrido[3,4-b]indol-1-yl)phenoxy)ethyl)piperazine-1-carbonyl)-4-fluorobenzyl)phthalazin-1(2H)-one], for which the IC50 at ER Alpha-LBD (GST) was found to be 44 nM; on Human recombinant PARP1 it was 28 nM; on Human recombinant PARP2, 4 nM.
Take `Cn1ncnc1[C@H]1c2n[nH]c(=O)c3cc(F)cc(c23)N[C@@H]1c1ccc(OC[C@](C)(O)C(=O)Nc2ccc(C#N)c(C(F)(F)F)c2)cc1` [Compound 1.1a, (S)—N-(4-cyano-3-(trifluoromethyl)phenyl)-3-(4-((8S,9R)-5-fluoro-9-(1-methyl-1H-1,2,4-triazol-5-yl)-3-oxo-3,7,8,9-tetrahydro-2H-pyrido[4,3,2-de]phthalazin-8-yl)phenoxy)-2-hydroxy-2-methylpropanamide]: the half-inhibitory concentration (IC50) in the assay with 22RV1 cells was over 10000 nM; in the assay with HT-29 cells, over 10000 nM; at Human recombinant PARP1, over 1000 nM; on Human recombinant PARP2 it was over 1000 nM.
For `Cn1ncnc1[C@@H]1c2n[nH]c(=O)c3cc(F)cc(c23)N[C@H]1c1ccc(OC[C@](C)(O)C(=O)Nc2ccc(C#N)c(C(F)(F)F)c2)cc1` [Compound 1.1b, (S)—N-(4-cyano-3-(trifluoromethyl)phenyl)-3-(4-((8R,9S)-5-fluoro-9-(1-methyl-1H-1,2,4-triazol-5-yl)-3-oxo-3,7,8,9-tetrahydro-2H-pyrido[4,3,2-de]phthalazin-8-yl)phenoxy)-2-hydroxy-2-methylpropanamide], the half-inhibitory concentration (IC50) with 22RV1 cells is over 10000 nM; in the assay on HT-29 cells, over 10000 nM; at Human recombinant PARP1, 60 nM; on Human recombinant PARP2, 30 nM.
As for `Cn1ncnc1[C@@H]1c2n[nH]c(=O)c3cc(F)cc(c23)N[C@H]1c1ccc(N2C(=S)N(c3ccc(C#N)c(C(F)(F)F)c3)C(=O)C2(C)C)cc1` [Compound 1.2b, 4-(3-(4-((8R,9S)-5-fluoro-9-(1-methyl-1H-1,2,4-triazol-5-yl)-3-oxo-3,7,8,9-tetrahydro-2H-pyrido[4,3,2-de]phthalazin-8-yl)phenyl)-4,4-dimethyl-5-oxo-2-thioxoimidazolidin-1-yl)-2-(trifluoromethyl)benzonitrile], the concentration for half-maximal inhibition (IC50) in the assay on 22RV1 cells is over 10000 nM; with HT-29 cells, over 10000 nM; at Human recombinant PARP2 it was 20 nM.
Turning to `CC1(C)C(=O)N(c2ccc(C#N)c(C(F)(F)F)c2)C(=S)N1C1CCN(C(=O)c2cc(Cc3n[nH]c(=O)c4ccccc34)ccc2F)CC1` [Compound 1.3, 4-(3-(1-(2-fluoro-5-((4-oxo-3,4-dihydrophthalazin-1-yl)methyl)benzoyl)piperidin-4-yl)-4,4-dimethyl-5-oxo-2-thioxoimidazolidin-1-yl)-2-(trifluoromethyl)benzonitrile], the IC50 at Human recombinant PARP1 was determined as 3 nM; on Human recombinant PARP2, 0.6 nM.
Turning to `CC/C(=C(/c1ccc(OCCCCCC(=O)N2CCN(C(=O)c3cc(Cc4n[nH]c(=O)c5ccccc45)ccc3F)CC2)cc1)c1ccc2[nH]ncc2c1)c1ccc(Cl)cc1F` [Compound 2.49, (E)-4-(3-(4-(6-(4-(2-(4-chloro-2-fluorophenyl)-1-(1H-indazol-5-yl)but-1-en-1-yl)phenoxy)hexanoyl)piperazine-1-carbonyl)-4-fluorobenzyl)phthalazin-1(2H)-one], the IC50 is 4.4 nM on ER Alpha-LBD (GST), 204 nM at Human recombinant PARP1 and 9 nM at Human recombinant PARP2.
The like results for `C[C@@H]1Cc2c([nH]c3ccccc23)[C@@H](c2c(F)cc(OCCCCCC(=O)N3CCN(C(=O)c4cc(Cc5n[nH]c(=O)c6ccccc56)ccc4F)CC3)cc2F)N1CC(C)(C)F` [Compound 2.50, 4-(3-(4-(6-(3,5-difluoro-4-((1R,3R)-2-(2-fluoro-2-methylpropyl)-3-methyl-2,3,4,9-tetrahydro-1H-pyrido[3,4-b]indol-1-yl)phenoxy)hexanoyl)piperazine-1-carbonyl)-4-fluorobenzyl)phthalazin-1(2H)-one] were, in that order, 5.7 nM, 21 nM and 3 nM.
The like results for `CC/C(=C(/c1ccc(OCCCCCCN2CCN(C(=O)c3cc(Cc4n[nH]c(=O)c5ccccc45)ccc3F)CC2)cc1)c1ccc2[nH]ncc2c1)c1ccc(Cl)cc1F` [Compound 2.52, (E)-4-(3-(4-(6-(4-(2-(4-chloro-2-fluorophenyl)-1-(1H-indazol-5-yl)but-1-enyl)phenoxy)hexyl)piperazine-1-carbonyl)-4-fluorobenzyl)phthalazin-1(2H)-one] were, in that order, 5.3 nM, 187 nM and 29 nM.
The like results for `CC/C(=C(/c1ccc(OCCCOCC(=O)N2CCN(C(=O)c3cc(Cc4n[nH]c(=O)c5ccccc45)ccc3F)CC2)cc1)c1ccc2[nH]ncc2c1)c1ccc(Cl)cc1F` [Compound 2.53, (E)-4-(3-(4-(2-(3-(4-(2-(4-chloro-2-fluorophenyl)-1-(1H-indazol-5-yl)but-1-enyl)phenoxy)propoxy)acetyl)piperazine-1-carbonyl)-4-fluorobenzyl)phthalazin-1(2H)-one] were, in that order, 3.4 nM, 95 nM and 6 nM.
For `CC/C(=C(/c1ccc(OCCCOCCN2CCN(C(=O)c3cc(Cc4n[nH]c(=O)c5ccccc45)ccc3F)CC2)cc1)c1ccc2[nH]ncc2c1)c1ccc(Cl)cc1F` [Compound 2.54, (E)-4-(3-(4-(2-(3-(4-(2-(4-chloro-2-fluorophenyl)-1-(1H-indazol-5-yl)but-1-enyl)phenoxy)propoxy)ethyl)piperazine-1-carbonyl)-4-fluorobenzyl)phthalazin-1(2H)-one], the values for the IC50 on ER Alpha-LBD (GST), on Human recombinant PARP1 and on Human recombinant PARP2 were 64.1 nM, 40 nM and 5 nM, respectively. Moreover, on ER Alpha-LBD (GST) (read-out: ERα Ki), the Ki turned out to be 34.5 nM.
